Like-named read-outs stand apart in the source and are kept apart here.
How the values were obtained:
[1] = test system: serum and liver lipid levels in normal rats; assay: Effects on relative liver weight, serum and liver lipid levels in normal rats (100 mg/kg, 7 days); type: in vivo, Male Wistar strain rats; settings: for serum Ch, TG and PL (in words): compared with control; for Liver lipid levels Ch / Liver lipid levels PL / Liver lipid levels TG / Serum lipid levels Ch / Serum lipid levels PL / Serum lipid levels TG / Relative liver weight / Liver lipid levels Ch, relative to Control (100) / Liver lipid levels PL, relative to Control (100) / Liver lipid levels TG, relative to Control (100) / Relative liver weight, relative to Control (100) / Serum lipid levels Ch, relative to Control (100) / Serum lipid levels PL, relative to Control (100) / Serum lipid levels TG, relative to Control (100): Table 1; for Liver lipid levels Ch / Liver lipid levels PL / Liver lipid levels TG / Serum lipid levels Ch / Serum lipid levels PL / Serum lipid levels TG: fasted overnight; for Liver lipid levels Ch / Liver lipid levels PL / Liver lipid levels TG / Serum lipid levels Ch / Serum lipid levels PL / Serum lipid levels TG / Relative liver weight: mean ± S.E. (n = 6); for Liver lipid levels Ch, relative to Control (100) / Liver lipid levels PL, relative to Control (100) / Liver lipid levels TG, relative to Control (100) / Relative liver weight, relative to Control (100) / Serum lipid levels Ch, relative to Control (100) / Serum lipid levels PL, relative to Control (100) / Serum lipid levels TG, relative to Control (100): in parentheses
Method: (1) Effects on relative liver weight, serum and liver lipid levels in normal rats
Male Wistar strain rats, weighing 180-210 g were orally administered the present compounds (X=Cl, n1 =2, 3, 4 and n2 =1) and 4-(4-chlorobenzyloxy)benzyl nicotinate (KCD-232), being X=Cl, n1 =1, n2 =1, respectively, which were suspended in 0.5% carboxymethyl cellulose (CMC) solution once a day at a dose of 100 mg/kg b.w. for 7 days. The last administration was occured in rats fasted overnight. At 4 hr later blood was withdrawn from jugular vein, clotted and centrifuged to obtain serum. The liver was rapidly removed and weighed. Total lipids were extracted from the serum and liver, and cholesterol (Ch), triglycerides (TG) and phospholipids (PL) levels were determined.

[2] = test system: serum and liver lipid levels in rats; assay: Serum and liver lipid levels and relative liver weight in rats (100 mg/kg, 10 days); type: in vivo, Male rats of the Wistar strain; settings: for lipid lowering effects compared with KCD-232 (in words) / Liver lipid levels Ch / Liver lipid levels PL / Liver lipid levels TG / Relative liver weight / Serum lipid levels Ch / Serum lipid levels PL / Serum lipid levels TG: 100 mg/kg p.o. 10 days; for response vs control in vivo at 100 mg/kg: Rattus norvegicus, po; for response vs control in vivo at 100 mg/kg / Liver lipid levels Ch / Liver lipid levels PL / Liver lipid levels TG / Relative liver weight / Serum lipid levels Ch / Serum lipid levels PL / Serum lipid levels TG / Relative liver weight, relative to Control (100): Table 2; for response vs control in vivo at 100 mg/kg / Relative liver weight, relative to Control (100): in parentheses, Control = (100); for Liver lipid levels Ch / Liver lipid levels PL / Liver lipid levels TG / Relative liver weight / Serum lipid levels Ch / Serum lipid levels PL / Serum lipid levels TG: Mean ± S.E. (n = 9)
Method: (2) Male rats of the Wistar strain weighing 160-180 g were fed a stock deit (CE-2, Japan CLEA, Tokyo) and water ad libitum. The present compounds and KCD-232 were suspended, respectively, in a 0.5% of CMC solution and give orally to rats once a day at a dose of 100 mg/kg b.w. for 10 days.
Control rats were received the 0.5% CMC solution alone. The diet was withdrawn immediately after the last administration of compounds. Animals were sacrificed by decapitation 4 hr after the last administration and blood was collected, clotted and centrifuged to obtain serum. The liver was excised quickly and weighed. Total lipids were extracted from the serum and liver, and the levels of Ch, TG and PL were determined colorimetrically.

[3] = test system: serum and liver lipid levels in rats; assay: Serum and liver lipid levels and relative liver weight in rats (25 mg/kg, 10 days); type: in vivo, male Wistar rats; settings: Table 4
Method: (3) The present compounds and KCD-232 were orally given to male Wistar rats weighing 160-180 g once a day at a dose of 25 mg/kg b.w. for 10 days. Rats were subjected to fast for 4 hr immediately after the last administration of compounds, thereafter they were sacrificed by decapitation and blood was collected, clotted and centrifuged to obtain serum. The liver was removed quickly and weighed. Total lipids were extracted from the serum and liver, and then the levels of total Ch, TG and PL were determined with colorimetric methods.

in vivo = settings: mouse, po, p o, male ICR mice
Source text: The present compounds were given to 6 week-old male mice of the ICR strain and their acute toxicity was examined.

[4] = 240 h, read-out: Liver lipid levels PL, relative to Control (100)
[5] = read-out: Liver lipid levels Ch, relative to Control (100)
[6] = read-out: Liver lipid levels TG, relative to Control (100)
[7] = read-out: Serum lipid levels Ch, relative to Control (100)
[8] = read-out: Serum lipid levels PL, relative to Control (100)
[9] = read-out: Serum lipid levels TG, relative to Control (100)
[10] = 25 mg/kg p.o. 10 days, Mean ± S.E. (n = 7)
[11] = in parentheses, Control = (100)

## O=C(OCc1ccc(OCCCc2ccc(Cl)cc2)cc1)c1cccnc1 [n1=3, n2=1, 4-[3-(4-Chlorophenyl)propoxy]benzyl nicotinate]
[1]; 100 mg/kg p.o. 7 days
  serum Ch, TG and PL (in words): significantly reduced serum Ch, TG and PL
  Liver lipid levels Ch: 3.57 ± 0.15 mg/g liver
  Liver lipid levels PL: 34.1 ± 1.8 mg/g liver
  Liver lipid levels TG: 5.95 ± 1.83 mg/g liver
  Serum lipid levels Ch: 48.4 ± 5.4 mg/dL
  Serum lipid levels PL: 64.4 ± 5.2 mg/dL
  Serum lipid levels TG: 18 ± 2.5 mg/dL
  Relative liver weight: 3.20 ± 0.06 g/100 g b.w.
[1]
  Liver lipid levels Ch, relative to Control (100): 101
  Liver lipid levels PL, relative to Control (100): 92
  Liver lipid levels TG, relative to Control (100): 81
  Relative liver weight, relative to Control (100): 104
  Serum lipid levels Ch, relative to Control (100): 64
  Serum lipid levels PL, relative to Control (100): 63
  Serum lipid levels TG, relative to Control (100): 53
[2]
  lipid lowering effects compared with KCD-232 (in words): the lipid lowering effects were superior to that of KCD-232
  Liver lipid levels Ch: 3.09 ± 0.15 mg/g liver
  Liver lipid levels PL: 39.8 ± 0.8 mg/g liver
  Liver lipid levels TG: 3.75 ± 0.27 mg/g liver
  Relative liver weight: 3.89 ± 0.10 g/100 g b.w.
  Serum lipid levels Ch: 62.3 ± 3.1 mg/dL
  Serum lipid levels PL: 96.8 ± 5 mg/dL
  Serum lipid levels TG: 30.6 ± 2.8 mg/dL
  Relative liver weight, relative to Control (100): 101
[2]; [4]
  response vs control in vivo at 100 mg/kg: 104%
[2]; [5]
  response vs control in vivo at 100 mg/kg: 101%
[2]; [6]
  response vs control in vivo at 100 mg/kg: 59.3%
[2]; [7]
  response vs control in vivo at 100 mg/kg: 71.9%
[2]; [8]
  response vs control in vivo at 100 mg/kg: 65.2%
[2]; [9]
  response vs control in vivo at 100 mg/kg: 24.7%
[3]; [10]
  Liver lipid levels Ch: 3.16 ± 0.13 mg/g liver
  Liver lipid levels PL: 40.3 ± 0.9 mg/g liver
  Liver lipid levels TG: 3.97 ± 0.35 mg/g liver
  Relative liver weight: 3.84 ± 0.13 g/100 g b.w.
  Serum lipid levels Ch: 60.3 ± 5.3 mg/dL
  Serum lipid levels PL: 83.2 ± 8.5 mg/dL
  Serum lipid levels TG: 24.2 ± 2.8 mg/dL
[3]; [11]
  Liver lipid levels Ch, relative to Control (100): 97.2
  Liver lipid levels PL, relative to Control (100): 106.1
  Liver lipid levels TG, relative to Control (100): 53.4
  Relative liver weight, relative to Control (100): 109
  Serum lipid levels Ch, relative to Control (100): 76.9
  Serum lipid levels PL, relative to Control (100): 76.9
  Serum lipid levels TG, relative to Control (100): 64.0
In vivo
  LD50: > 4000 mg/kg

## O=C(OCc1ccc(OCCCCc2ccc(Cl)cc2)cc1)c1cccnc1 [n1=4, n2=1, 4-[4-(4-chlorophenyl)butoxy]benzyl nicotinate]
[1]; 100 mg/kg p.o. 7 days
  serum Ch, TG and PL (in words): significantly reduced serum Ch, TG and PL
  Liver lipid levels Ch: 3.43 ± 0.10 mg/g liver
  Liver lipid levels PL: 30.2 ± 1.4 mg/g liver
  Liver lipid levels TG: 5.06 ± 1.21 mg/g liver
  Serum lipid levels Ch: 45.3 ± 3.8 mg/dL
  Serum lipid levels PL: 60.4 ± 4.8 mg/dL
  Serum lipid levels TG: 16 ± 3.2 mg/dL
  Relative liver weight: 3.16 ± 0.05 g/100 g b.w.
[1]; 100 mg/kg p.o. 7 days, p<0.05
  reduction of liver TG level compared with control: 32%
[1]
  Liver lipid levels Ch, relative to Control (100): 97
  Liver lipid levels PL, relative to Control (100): 82
  Liver lipid levels TG, relative to Control (100): 69
  Relative liver weight, relative to Control (100): 102
  Serum lipid levels Ch, relative to Control (100): 60
  Serum lipid levels PL, relative to Control (100): 59
  Serum lipid levels TG, relative to Control (100): 47
[2]
  lipid lowering effects compared with KCD-232 (in words): the lipid lowering effects were superior to that of KCD-232
  Liver lipid levels Ch: 2.87 ± 0.13 mg/g liver
  Liver lipid levels PL: 40.8 ± 0.7 mg/g liver
  Liver lipid levels TG: 5.06 ± 0.69 mg/g liver
  Relative liver weight: 4.04 ± 0.10 g/100 g b.w.
  Serum lipid levels Ch: 58.3 ± 3.3 mg/dL
  Serum lipid levels PL: 90.5 ± 4.6 mg/dL
  Serum lipid levels TG: 29.9 ± 2.3 mg/dL
  Relative liver weight, relative to Control (100): 105
[2]; [4]
  response vs control in vivo at 100 mg/kg: 107%
[2]; [5]
  response vs control in vivo at 100 mg/kg: 94.4%
[2]; [6]
  response vs control in vivo at 100 mg/kg: 80.5%
[2]; [7]
  response vs control in vivo at 100 mg/kg: 67.2%
[2]; [8]
  response vs control in vivo at 100 mg/kg: 60.9%
[2]; [9]
  response vs control in vivo at 100 mg/kg: 24.2%
In vivo
  LD50: > 4000 mg/kg

— patent US4556715A, “Nicotinic acid derivatives” (Kyorin Pharmaceutical Co., Ltd., priority 1980, dated 1985)
